Experimental data from ChEMBL document CHEMBL1201862, “PubChem BioAssay data set” (2004).
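48-hour exposure; five concentrations; linearly interpolated endpoints. GI50: concentration for 50% inhibition of growth.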 Active and inactive are the calls of the source. No stated cut-off is given here; in the data, active = GI50 up to about 1.1 µM and inactive = higher.

Columns and labels:
Experiment in all cases: inhibition of tumour cell growth, NCI panel, 48 h
MCF7 = test system: MCF7
CCRF-CEM = test system: CCRF-CEM
A549 = test system: A549
HOP-92 = test system: HOP-92
HCT-116 = test system: HCT-116
786-0 = test system: 786-0
SR = test system: SR
NCI-H460 = test system: NCI-H460
MOLT-4 = test system: MOLT-4
HOP-62 = test system: HOP-62
OVCAR-3 = test system: OVCAR-3
SN12C = test system: SN12C
SK-MEL-5 = test system: SK-MEL-5
UO-31 = test system: UO-31
UACC-257 = test system: UACC-257
RPMI-8226 = test system: RPMI-8226
IGROV-1 = test system: IGROV-1
SF-295 = test system: SF-295
RXF 393 = test system: RXF 393
HL-60 = test system: HL-60

| Compound | GI50 (MCF7) | GI50 (CCRF-CEM) | GI50 (A549) | GI50 (HOP-92) | GI50 (HCT-116) | GI50 (786-0) | GI50 (SR) | GI50 (NCI-H460) | GI50 (MOLT-4) | GI50 (HOP-62) | GI50 (OVCAR-3) | GI50 (SN12C) | GI50 (SK-MEL-5) | GI50 (UO-31) | GI50 (UACC-257) | GI50 (RPMI-8226) | GI50 (IGROV-1) | GI50 (SF-295) | GI50 (RXF 393) | GI50 (HL-60) |
| --- | --- | --- | --- | --- | --- | --- | --- | --- | --- | --- | --- | --- | --- | --- | --- | --- | --- | --- | --- | --- |
| N[C@@H]1C[C@H](N)c2c(Cl)sc(Cl)c21 | > 100 µM (inactive) | > 100 µM (inactive) | > 100 µM (inactive) | > 100 µM (inactive) | > 100 µM (inactive) | > 100 µM (inactive) | > 100 µM (inactive) | > 100 µM (inactive) | > 100 µM (inactive) | > 100 µM (inactive) | > 100 µM (inactive) | > 100 µM (inactive) | > 100 µM (inactive) | > 100 µM (inactive) | > 100 µM (inactive) | > 100 µM (inactive) | > 100 µM (inactive) | > 100 µM (inactive) | > 100 µM (inactive) |  |
| COC(=O)CC1CN(C(=O)OCc2ccccc2)C(C)(C)O1 (stereo not drawn) | > 100 µM (inactive) | > 100 µM (inactive) | > 100 µM (inactive) | 94.6 µM (inactive) | > 100 µM (inactive) | > 100 µM (inactive) | > 100 µM (inactive) | > 100 µM (inactive) | 80.2 µM (inactive) |  | > 100 µM (inactive) | > 100 µM (inactive) | 44.6 µM (inactive) | 38.6 µM (inactive) | > 100 µM (inactive) | 81.3 µM (inactive) | 82.2 µM (inactive) | > 100 µM (inactive) | > 100 µM (inactive) | 89.9 µM (inactive) |
| CC(=O)NCCC1CN(C(=O)/C=C\C#C[Si](C)(C)C)c2ccccc21 (stereo not drawn) | 5.36 µM (inactive) | 11.8 µM (inactive) | 27.5 µM (inactive) | 41.1 µM (inactive) | > 10 µM (inactive) |  | > 10 µM (inactive) | 28.8 µM (inactive) | 17.3 µM (inactive) |  | 16 µM (inactive) | 37.3 µM (inactive) | 6.35 µM (inactive) | 26.9 µM (inactive) | 2.55 µM (inactive) | 10.5 µM (inactive) | 14.1 µM (inactive) | 21.5 µM (inactive) | 12.1 µM (inactive) | 23.3 µM (inactive) |
| O=c1[nH]c2ccsc2c(=O)n1COCc1ccccc1 | > 100 µM (inactive) | > 100 µM (inactive) | > 100 µM (inactive) | 79.8 µM (inactive) | > 100 µM (inactive) | > 100 µM (inactive) | > 100 µM (inactive) | > 100 µM (inactive) | > 100 µM (inactive) | > 100 µM (inactive) | > 100 µM (inactive) | > 100 µM (inactive) | > 100 µM (inactive) | > 100 µM (inactive) | > 100 µM (inactive) | > 100 µM (inactive) | > 100 µM (inactive) | > 100 µM (inactive) | > 100 µM (inactive) | > 100 µM (inactive) |
| CCOC(=O)/C(=C\c1ccnc2ccccc12)P(=O)(OCC)OCC | 1.4 µM (inactive) | 0.366 µM (active) | 5.31 µM (inactive) | 2.49 µM (inactive) | 1.99 µM (inactive) | 1.94 µM (inactive) | 2.24 µM (inactive) | 3.48 µM (inactive) | 4.65 µM (inactive) | 1.93 µM (inactive) | 1.64 µM (inactive) | 3.01 µM (inactive) | 2.84 µM (inactive) |  | 3.73 µM (inactive) | 2.67 µM (inactive) | 1.6 µM (inactive) | 2.99 µM (inactive) | 2.62 µM (inactive) |  |
| C/C(=C\COc1ccc2ccc(=O)oc2c1)CCC(=O)C(C)(C)O | 19.1 µM (inactive) | 16.4 µM (inactive) | 26.7 µM (inactive) | 26.4 µM (inactive) | 15.6 µM (inactive) | 18.3 µM (inactive) | 15.3 µM (inactive) | 31.8 µM (inactive) | 22.9 µM (inactive) | 44 µM (inactive) | 17.9 µM (inactive) | 24.2 µM (inactive) | 16.5 µM (inactive) | 28.4 µM (inactive) | 28 µM (inactive) | 17 µM (inactive) | 35.1 µM (inactive) | 38.4 µM (inactive) | 14.4 µM (inactive) | 15.2 µM (inactive) |
| COc1ccc(CC2COc3cc(OC)cc(OC)c3C2=O)cc1 (stereo not drawn) | 36 µM (inactive) |  | 33.9 µM (inactive) | 25.9 µM (inactive) | 15.3 µM (inactive) | 19 µM (inactive) | 4.57 µM (inactive) | 29.6 µM (inactive) | 30.3 µM (inactive) | 24.9 µM (inactive) | 18.9 µM (inactive) | 38.9 µM (inactive) | 21.1 µM (inactive) | 24.7 µM (inactive) | 32.5 µM (inactive) | 15.3 µM (inactive) | 28.7 µM (inactive) | 17.5 µM (inactive) | 26.8 µM (inactive) | 13.2 µM (inactive) |
